Where “and” joins values, the source holds several entries; their conditions need not be identical. Equal entries are not always repeated.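 Following 48 hours of exposure in 96-well plates, responses at five concentrations were used to interpolate endpoints linearly. Abbreviation: GI50, concentration required for 50% inhibition of growth. TGI marks complete inhibition of growth.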 Where a SMILES comes first, the peptide text is derived from it. [ ]: non-standard residue; d: D form. pGlu = O=C1CC[CH](C(=O)O)N1
Tests used:
Assay in all cases: growth of human tumour cells (NCI), 48 h
[1] = system: A549 NSCLC
[2] = system: CCRF-CEM leukemia
[3] = system: COLO 205 colon
[4] = system: EKVX NSCLC
[5] = system: HCC-2998 colon
[6] = system: HCT-15 colon
[7] = system: OVCAR-5 ovarian
[8] = system: SK-MEL-5 melanoma
[9] = system: SR leukemia
[10] = system: UACC-257 melanoma

SMILES | GI50 [1] [µM] | TGI [1] [µM] | GI50 [2] [µM] | TGI [2] | GI50 [3] [µM] | TGI [3] [µM] | GI50 [4] [µM] | TGI [4] [µM] | GI50 [5] [µM] | TGI [5] [µM] | GI50 [6] [µM] | TGI [6] [µM] | GI50 [7] [µM] | TGI [7] [µM] | GI50 [8] [µM] | TGI [8] [µM] | GI50 [9] [µM] | TGI [9] [µM] | GI50 [10] [µM] | TGI [10] [µM]
N.N.N.N.N.NC(=O)c1nn[n-]n1.[Cl-].[Co+3] | > 100 | > 100 | > 100 | > 100 µM | > 100 | > 100 | > 100 | > 100 | > 100 | > 100 | > 100 | > 100 | > 100 | > 100 | > 100 | > 100 | > 100 | > 100 | > 100 | > 100
C[C@@]1(C(=O)O)CCC[C@]2(C)C1CC[C@@]13CC(=O)[C@@](CO)(CC[C@]12O)C3 (stereo partly specified) | > 100 | > 100 | > 100 | > 100 µM | 6.16 | > 100 | > 100 | > 100 | 50.7 | > 100 | > 100 | > 100 | > 100 | > 100 | > 100 | > 100 | > 100 | > 100 | > 100 | > 100
COc1cccc(N2CCN(CC(=O)N3CCN(c4nnc(-c5ccc(Cl)cc5)c(-c5ccc(Cl)cc5)n4)CC3)CC2)c1 | 38.1 | > 100 | 27.2 | > 100 µM | 22.2 | > 100 | 12.3 | 93.7 | > 100 | > 100 | 8.35 | > 100 | > 100 | > 100 | 8.55 | > 100 | 5.04 | 31.3 | 51.7 | > 100
CSC(=Nc1nnc(-c2ccc([N+](=O)[O-])cc2)s1)SC | – | > 100 | – | > 100 µM | – | > 100 | – | > 100 | – | > 100 | – | > 100 | – | > 100 | – | > 100 | – | > 100 | – | > 100
O=[N+]([O-])c1ccc(C[P+](c2ccccc2)(c2ccccc2)c2ccccc2)cc1 | – | > 100 | – | > 100 µM | – | > 100 | – | > 100 | – | > 100 | – | > 100 | – | > 100 | – | > 100 | – | > 100 | – | 47.3
CCN1C(=O)N(CC)C2C1NN=c1s/c(=C\c3cccc(F)c3)c(=O)n12 (stereo unspecified) | 0.282 | > 100 | 0.181 | > 100 µM | 0.243 | 4.92 | 0.657 | > 100 | 0.223 | > 65.6 | 0.0549 | > 100 | 0.556 | > 100 | 0.131 | 2.33 | 0.044 | > 100 | 30 | > 100
CCNC(=O)C1CCCN1C(=O)C(CCCN=C(N)N)NC(=O)C(CC(C)C)NC(=O)C(CC(C)C)NC(=O)C(Cc1ccc(O)cc1)NC(=O)C(CO)NC(=O)C(Cc1c[nH]c2ccccc12)NC(=O)C(Cc1cnc[nH]1)NC(=O)C1CCC(=O)N1 (stereo unspecified) ([pGlu]HWSYLLRP-NHEt; configuration not given here) | > 100 | > 100 | 81.7 | > 100 µM | > 100 | > 100 | > 100 | > 100 | > 100 | > 100 | > 100 | > 100 | > 100 | > 100 | > 100 | > 100 | > 100 | > 100 | > 100 | > 100
COC(=O)C1CC23CCCN4CCC5(c6ccccc6N(C=O)C15CC2)C43 (stereo unspecified) | – | > 100 | – | > 100 µM | – | > 100 | – | > 100 | – | > 100 | – | > 100 | – | > 100 | – | > 100 | – | > 100 | – | > 100
C[C@]12CC[C@@H]3c4ccc(OC(=O)N(CCCl)CCCl)cc4CC[C@H]3[C@@H]1CC[C@@H]2O | 2.46 | – | 1.21 | 6.83 µM and 3.45 µM | 2.99 | 8.94 | 3.26 | – | 1.56 | 5.16 | 0.875 | – | 9.98 | – | 1.95 | 9.27 | 0.135 | 1.42 | 3.81 | 15
O=C(CCCCCCNC(=O)c1cnc(N(c2ccccc2)c2ccccc2)nc1)NO | 6.12 | > 92.7 | 1.03 | > 100 µM | 1.79 | 4.1 | 4.95 | > 100 | 3.38 | 12.5 | 18.4 | > 100 | 3.14 | 26.1 | 1.82 | 5.48 | 1.22 | > 100 | 2.23 | 30.5
C/C(=N\NC(=S)N1CC2CCC(CC2)C1)c1nccs1 | – | 8.87 | – | 0.445 µM | – | 16 | – | 11.9 | – | 15.9 | – | 20.4 | – | 15.8 | – | 5.24 | – | 6.91 | – | 6.06
CCCCCCCCNc1cc2c3c(c1)CCCN3CCC2 | 4.26 | 19.3 | 1.63 | > 100 µM | 1.87 | 4.76 | 0.559 | 15.3 | 5.41 | 26.8 | 10.5 | 38.5 | 3.88 | 17.5 | 1.49 | 3.14 | 0.551 | > 100 | 1.03 | 6.71
COc1ncnc2c(-c3ccccc3)cn(COCc3ccccc3)c12 | 3.3 | 28.7 | 3.58 | > 100 µM | 2.69 | 7.73 | 2.37 | > 100 | 4.01 | > 100 | 2.48 | > 100 | 47.8 | > 100 | 1.13 | 2.34 | 2.79 | 43.2 | 2.74 | 9.31
COc1ccc(C(=S)N2CCN(c3cccc(C)c3)CC2)cc1OC | 6.37 | > 100 | > 100 | > 100 µM | 3.88 | > 100 | 7.05 | > 100 | 5.41 | > 100 | 3.77 | > 100 | > 100 | > 100 | 4.55 | > 100 | 1.53 | > 100 | 55.4 | > 100
C=CCN=c1sc2c(n1NC(=O)c1cc3ccc1CCc1ccc(cc1)CC3)C(=O)c1ccccc1C2=O | 2.26 | 5.61 | 2.39 | > 100 µM | 1.94 | 4.24 | 1.39 | 3.46 | 1.62 | 3.14 | 1.52 | 3.5 | 2.03 | 4.38 | 1.41 | 2.75 | 1.78 | > 100 | 1.55 | 3.15
O=C(O)CN(CC(=O)O)Cc1cc(C#Cc2ccc(C#Cc3ccccc3)cc2)cc(CN(CC(=O)O)CC(=O)O)n1 | – | > 100 | – | > 64.9 µM | – | 36.2 | – | > 86.8 | – | > 72.4 | – | > 59.6 | – | > 81.6 | – | > 71.5 | – | > 62.5 | – | > 89.1
Cc1cccc(/C=C/c2c(C(=O)/C=C/c3ccccc3)c(C)nc3ccccc23)c1 | 1.91 | 4.76 | 1.33 | > 100 µM | 1.81 | 4.34 | 1.75 | 3.26 | 1.73 | 3.49 | 1.26 | 3.57 | 1.98 | 3.56 | 1.64 | 2.99 | 0.982 | 4.94 | 1.65 | 3.28

— PubChem BioAssay (NCI)
